Reference: the NIST ThermoML archive (doi:10.1016/j.jct.2007.05.011)

Experiment: xn = mol fraction of the nth substance listed
Details: 101 kPa, Liquid; for mass density: Vibrating tube method

NCCO.O=CO [2-hydroxyethylammonium formate] + CO
Details	mass density [kg/m3]	speed of sound [m/s]
288.15 K, x2 = 0	1183.57	1733.9
288.15 K, x2 = 0.055	1176.05	1744.5
288.15 K, x2 = 0.098	1169.59	1733.2
288.15 K, x2 = 0.193	1153.03	1703.2
288.15 K, x2 = 0.296	1132.54	1666.2
288.15 K, x2 = 0.399	1108.24	1623.5
288.15 K, x2 = 0.5	1079.69	1573.6
288.15 K, x2 = 0.598	1046.63	1516.4
288.15 K, x2 = 0.701	1005.33	1448.4
288.15 K, x2 = 0.799	953.96	1365.8
288.15 K, x2 = 0.9	887.02	1265.2
288.15 K, x2 = 0.951	844.491	1203.6
290.65 K, x2 = 0	1181.81	1727.4
290.65 K, x2 = 0.055	1174.4	1739.2
290.65 K, x2 = 0.098	1167.93	1727.9
290.65 K, x2 = 0.193	1151.34	1697.7
290.65 K, x2 = 0.296	1130.83	1660.7
290.65 K, x2 = 0.399	1106.5	1617.8
290.65 K, x2 = 0.5	1077.9	1567.7
290.65 K, x2 = 0.598	1044.79	1510.3
290.65 K, x2 = 0.701	1003.42	1441.8
290.65 K, x2 = 0.799	951.962	1358.8
290.65 K, x2 = 0.9	884.894	1257.6
290.65 K, x2 = 0.951	842.26	1195.6
293.15 K, x2 = 0	1180.04	1721.3
293.15 K, x2 = 0.055	1172.74	1734
293.15 K, x2 = 0.098	1166.26	1722.6
293.15 K, x2 = 0.193	1149.65	1692.4
293.15 K, x2 = 0.296	1129.11	1655.3
293.15 K, x2 = 0.399	1104.75	1612.1
293.15 K, x2 = 0.5	1076.11	1561.8
293.15 K, x2 = 0.598	1042.95	1504.3
293.15 K, x2 = 0.701	1001.51	1435.3
293.15 K, x2 = 0.799	949.965	1351.9
293.15 K, x2 = 0.9	882.765	1250.2
293.15 K, x2 = 0.951	840.027	1187.8
295.65 K, x2 = 0	1178.27	1715.1
295.65 K, x2 = 0.055	1171.09	1728.8
295.65 K, x2 = 0.098	1164.6	1717.4
295.65 K, x2 = 0.193	1147.97	1687
295.65 K, x2 = 0.296	1127.4	1649.9
295.65 K, x2 = 0.399	1103	1606.5
295.65 K, x2 = 0.5	1074.32	1556
295.65 K, x2 = 0.598	1041.11	1498.2
295.65 K, x2 = 0.701	999.603	1428.8
295.65 K, x2 = 0.799	947.967	1345.1
295.65 K, x2 = 0.9	880.636	1242.7
295.65 K, x2 = 0.951	837.792	1180
298.15 K, x2 = 0	1176.49	1709
298.15 K, x2 = 0.055	1169.43	1723.6
298.15 K, x2 = 0.098	1162.94	1712.1
298.15 K, x2 = 0.193	1146.28	1681.7
298.15 K, x2 = 0.296	1125.68	1644.5
298.15 K, x2 = 0.399	1101.26	1600.9
298.15 K, x2 = 0.5	1072.54	1550.2
298.15 K, x2 = 0.598	1039.27	1492.1
298.15 K, x2 = 0.701	997.697	1422.3
298.15 K, x2 = 0.799	945.97	1338.3
298.15 K, x2 = 0.9	878.505	1235.3
298.15 K, x2 = 0.951	835.555	1172.1
300.65 K, x2 = 0	1174.71	1702.9
300.65 K, x2 = 0.055	1167.77	1718.4
300.65 K, x2 = 0.098	1161.28	1706.9
300.65 K, x2 = 0.193	1144.6	1676.4
300.65 K, x2 = 0.296	1123.97	1639
300.65 K, x2 = 0.399	1099.51	1595.3
300.65 K, x2 = 0.5	1070.75	1544.4
300.65 K, x2 = 0.598	1037.43	1486.1
300.65 K, x2 = 0.701	995.792	1415.9
300.65 K, x2 = 0.799	943.973	1331.5
300.65 K, x2 = 0.9	876.371	1227.9
300.65 K, x2 = 0.951	833.316	1164.4
303.15 K, x2 = 0	1172.94	1696.8
303.15 K, x2 = 0.055	1166.12	1713.2
303.15 K, x2 = 0.098	1159.62	1701.7
303.15 K, x2 = 0.193	1142.91	1671.1
303.15 K, x2 = 0.296	1122.26	1633.6
303.15 K, x2 = 0.399	1097.77	1589.7
303.15 K, x2 = 0.5	1068.96	1538.6
303.15 K, x2 = 0.598	1035.59	1480
303.15 K, x2 = 0.701	993.884	1409.5
303.15 K, x2 = 0.799	941.97	1324.7
303.15 K, x2 = 0.9	874.236	1220.6
303.15 K, x2 = 0.951	831.073	1156.6
305.65 K, x2 = 0	1171.16	1690.8
305.65 K, x2 = 0.055	1164.47	1708.1
305.65 K, x2 = 0.098	1157.95	1696.5
305.65 K, x2 = 0.193	1141.23	1665.8
305.65 K, x2 = 0.296	1120.55	1628.2
305.65 K, x2 = 0.399	1096.02	1584.1
305.65 K, x2 = 0.5	1067.17	1532.8
305.65 K, x2 = 0.598	1033.75	1474
305.65 K, x2 = 0.701	991.972	1403.2
305.65 K, x2 = 0.799	939.967	1318
305.65 K, x2 = 0.9	872.095	1213.2
305.65 K, x2 = 0.951	828.823	1148.9
308.15 K, x2 = 0	1169.39	1684.8
308.15 K, x2 = 0.055	1162.82	1702.9
308.15 K, x2 = 0.098	1156.3	1691.3
308.15 K, x2 = 0.193	1139.55	1660.5
308.15 K, x2 = 0.296	1118.84	1622.8
308.15 K, x2 = 0.399	1094.27	1578.5
308.15 K, x2 = 0.5	1065.38	1527.1
308.15 K, x2 = 0.598	1031.9	1468
308.15 K, x2 = 0.701	990.06	1396.8
308.15 K, x2 = 0.799	937.959	1311.2
308.15 K, x2 = 0.9	869.95	1206
308.15 K, x2 = 0.951	826.572	1141.2
310.65 K, x2 = 0	1167.62	1678.7
310.65 K, x2 = 0.055	1161.16	1697.8
310.65 K, x2 = 0.098	1154.64	1686.1
310.65 K, x2 = 0.193	1137.87	1655.3
310.65 K, x2 = 0.296	1117.13	1617.4
310.65 K, x2 = 0.399	1092.53	1573
310.65 K, x2 = 0.5	1063.59	1521.4
310.65 K, x2 = 0.598	1030.06	1462
310.65 K, x2 = 0.701	988.146	1390.5
310.65 K, x2 = 0.799	935.95	1304.5
310.65 K, x2 = 0.9	867.803	1198.7
310.65 K, x2 = 0.951	824.316	1133.6
313.15 K, x2 = 0	1165.84	1672.7
313.15 K, x2 = 0.055	1159.51	1692.7
313.15 K, x2 = 0.098	1152.98	1681
313.15 K, x2 = 0.193	1136.19	1650
313.15 K, x2 = 0.296	1115.42	1612
313.15 K, x2 = 0.399	1090.78	1567.5
313.15 K, x2 = 0.5	1061.81	1515.6
313.15 K, x2 = 0.598	1028.22	1456
313.15 K, x2 = 0.701	986.228	1384.2
313.15 K, x2 = 0.799	933.936	1297.8
313.15 K, x2 = 0.9	865.647	1191.4
313.15 K, x2 = 0.951	822.053	1125.9
315.65 K, x2 = 0	1164.06	1666.7
315.65 K, x2 = 0.055	1157.86	1687.6
315.65 K, x2 = 0.098	1151.33	1675.8
315.65 K, x2 = 0.193	1134.51	1644.8
315.65 K, x2 = 0.296	1113.71	1606.7
315.65 K, x2 = 0.399	1089.03	1561.9
315.65 K, x2 = 0.5	1060.02	1509.9
315.65 K, x2 = 0.598	1026.37	1450.1
315.65 K, x2 = 0.701	984.31	1377.9
315.65 K, x2 = 0.799	931.919	1291.2
315.65 K, x2 = 0.9	863.489	1184.2
315.65 K, x2 = 0.951	819.788	1118.4
318.15 K, x2 = 0	1162.29	1660.8
318.15 K, x2 = 0.055	1156.21	1682.5
318.15 K, x2 = 0.098	1149.67	1670.7
318.15 K, x2 = 0.193	1132.83	1639.5
318.15 K, x2 = 0.296	1112	1601.3
318.15 K, x2 = 0.399	1087.29	1556.4
318.15 K, x2 = 0.5	1058.22	1504.2
318.15 K, x2 = 0.598	1024.52	1444.2
318.15 K, x2 = 0.701	982.388	1371.7
318.15 K, x2 = 0.799	929.9	1284.6
318.15 K, x2 = 0.9	861.326	1177.1
318.15 K, x2 = 0.951	817.518	1110.9
320.65 K, x2 = 0	1160.51	1654.8
320.65 K, x2 = 0.055	1154.57	1677.4
320.65 K, x2 = 0.098	1148.03	1665.5
320.65 K, x2 = 0.193	1131.15	1634.3
320.65 K, x2 = 0.296	1110.29	1596
320.65 K, x2 = 0.399	1085.54	1550.9
320.65 K, x2 = 0.5	1056.43	1498.5
320.65 K, x2 = 0.598	1022.67	1438.3
320.65 K, x2 = 0.701	980.467	1365.5
320.65 K, x2 = 0.799	927.874	1278
320.65 K, x2 = 0.9	859.158	1170
320.65 K, x2 = 0.951	815.245	1103.5
323.15 K, x2 = 0	1158.73	1648.9
323.15 K, x2 = 0.055	1152.94	1672.4
323.15 K, x2 = 0.098	1146.39	1660.5
323.15 K, x2 = 0.193	1129.49	1629.2
323.15 K, x2 = 0.296	1108.59	1590.7
323.15 K, x2 = 0.399	1083.8	1545.5
323.15 K, x2 = 0.5	1054.64	1492.9
323.15 K, x2 = 0.598	1020.83	1432.5
323.15 K, x2 = 0.701	978.549	1359.5
323.15 K, x2 = 0.799	925.853	1271.4
323.15 K, x2 = 0.9	856.995	1163
323.15 K, x2 = 0.951	812.98	1096.1
